Experimental findings from patent publication US20040102633A1, “Novel compounds” (priority 2000, published 2004) are described below.

What is called melting point is the temperature of the solid-liquid transition.

Counter-ions that a name gives are not always drawn.

Turning to `CC[C@H](NC(=O)c1c(CN2CCC(N3CCCCC3)CC2)c(-c2ccccc2)nc2cc(OCC(=O)O)ccc12)c1ccccc1` (as salt: hydrochloride) [Example 17, [3-[1,4′]Bipiperidinyl-1′-ylmethyl-2-phenyl-4((S)-1-phenyl-propylcarbamoyl)-quinolin-7-yloxy]-acetic Acid Dihydrochloride], the melting point is 196 °C (dec.).
Take `C[C@H](NC(=O)c1c(CN2CCC(N3CCCCC3)CC2)c(-c2ccc(C(F)(F)F)cc2)nc2ccccc12)C1CCCCC1` [Example 30, 3-[1,4′]Bipiperidinyl-1′-ylmethyl-2-(4-trifluoromethyl-phenyl) -quinoline-4-carboxylic Acid ((S)-1-cyclohexyl-ethyl)-amide]: the melting point lay in the range of 138 to 140 °C.
The same measure for `CC[C@H](NC(=O)c1c(CN2CCC(N3CCCCC3)CC2)c(-c2ccccc2)nc2cc(OCC(N)=O)ccc12)c1ccccc1` (as salt: hydrochloride) [Example 20, 3-[1,4′]Bipiperidinyl-1′-ylmethyl-7-carbamoylmethoxy-2-phenyl-quinoline-4-carboxylic Acid ((S)-1-phenyl-propyl)-amide Dihydrochloride]: 218 to 220 °C; for `C[C@H](NC(=O)c1c(CN2CCC(N3CCCCC3)CC2)c(-c2ccccc2)nc2cc(O)ccc12)C1CCCCC1` [Example 15, 3-[1,4′]Bipiperidinyl-1′-ylmethyl-7-hydroxy-2-phenyl-quinoline-4-carboxylic Acid ((S)-1-cyclohexyl-ethyl)-amide]: 177.9 to 178 °C.
In turn, `C[C@H](NC(=O)c1c(CN2CCC(N3CCCCC3=O)CC2)c(-c2ccccc2)nc2ccccc12)c1ccccc1` [Example 11, 3-(2-Oxo-[1,4′]bipiperidinyl-1′-ylmethyl)-2-phenyl-quinoline-4-carboxylic Acid ((S)-1-phenyl-ethyl)-amide] had a melting point of 124 to 125 °C.
As for `C[C@H](NC(=O)c1c(CN2CCC(N3CCCC(C(=O)O)C3)CC2)c(-c2ccccc2)nc2ccccc12)C1CCCCC1` (stereo partly drawn) [Example 14, 1′-[4-((S)-1-Cyclohexyl-ethylcarbamoyl)-2-phenyl-quinolin-3-ylmethyl]-[1,4′]bipiperidinyl-3-carboxylic Acid], the figure is 160 to 165 °C; as for `C[C@H](NC(=O)c1c(CN2CCC(N3CCCCC3)CC2)c(-c2ccc(F)cc2)nc2ccccc12)C1CCCCC1` [Example 29, 3-[1,4′]Bipiperidinyl-1′-ylmethyl-2-(4-fluoro-phenyl)-quinoline-4-carboxylic Acid ((S)-1-cyclohexyl-ethyl)-amide], 151 to 153 °C.
The same measure for `CC[C@H](NC(=O)c1c(CN2CCC(N3CCCCC3)CC2)c(-c2ccccc2)nc2cc(OCCO)ccc12)c1ccccc1` [Example 19, 3-[1,4′]Bipiperidinyl-1′-ylmethyl-7-(2-hydroxy-ethoxy)-2-phenyl-quinoline-4-carboxylic acid ((S)-1-phenyl-propyl)-amide]: 118 to 122 °C.
The compound `C[C@H](NC(=O)c1c(CN2CCC(N3CCCCC3)CC2)c(-c2cccs2)nc2ccccc12)C1CCCCC1` [Example 27, 3-[1,4′]Bipiperidinyl-1-ylmethyl-2-thiophen-2-yl-quinoline-4-carboxylic Acid ((S)-1-cyclohexyl-ethyl)-amide] gave a melting point of 165 to 166 °C.
Turning to `C[C@H](NC(=O)c1c(CN2CCC(N3CCCCC3)CC2)c(-c2ccccc2)nc2c(F)cccc12)C1CCCCC1` [Example 26, 3-[1,4′]Bipiperidinyl-1′-ylmethyl-8-fluoro-2-phenyl-quinoline-4-carboxylic Acid ((S)-1-cyclohexyl-ethyl)-amide], the melting point amounted to 113 °C.
Consider `C[C@H](NC(=O)c1c(CN2CCC(N)CC2)c(-c2ccccc2)nc2ccccc12)C1CCCCC1` [Example 6, 3-(4-Amino-piperidin-1-ylmethyl)-2-phenyl-quinoline-4-carboxylic Acid ((S)-1-cyclohexyl-ethyl)-amide], for which the melting point fell in the range of 140 to 145 °C.
As for `C[C@H](NC(=O)c1c(CN2CCC(N3CCCCC3)CC2)c(-c2ccccc2)nc2cc(Cl)ccc12)C1CCCCC1` [Example 24, 3-[1,4′]Bipiperidinyl-1′-ylmethyl-7-chloro-2-phenyl-quinoline-4-carboxylic acid ((S)-1-cyclohexyl-ethyl)-amide], the figure is 152 to 154 °C.
Regarding `C[C@H](NC(=O)c1c(CN2CCC(N3CCCCC3)CC2)c(-c2ccccc2)nc2ccc(F)cc12)C1CCCCC1` [Example 28, 3-[1,4′]Bipiperidinyl-1′-ylmethyl-6-fluoro-2-phenyl-quinoline-4-carboxylic Acid ((S)-1-cyclohexyl-ethyl)-amide], the melting point is 174 to 175 °C.
In the case of `C[C@H](NC(=O)c1c(CN2CCC(N3CCCCC3)CC2)c(-c2ccccc2)nc2cc(F)ccc12)C1CCCCC1` [Example 25, 3-[1,4′]Bipiperidinyl-1′-ylmethyl-7-fluoro-2-phenyl-quinoline-4-carboxylic Acid ((S)-1-cyclohexyl-ethyl)-amide], the melting point was in the range of 161 to 163 °C.
The compound `C[C@H](NC(=O)c1c(CN2CCC(N3CCCCC3)CC2)c(-c2ccccc2)nc2cc(O)ccc12)c1ccccc1` [Example 18, 3-[1,4′]Bipiperidinyl-1′-ylmethyl-7-hydroxy-2-phenyl-quin line-4-carboxylic Acid ((S)-1-phenyl-ethyl)-amide] came in with a melting point of 99.6 to 99.7 °C.
Turning to `CC(C)[C@H](NC(=O)c1c(CN2CCC(N3CCCCC3)CC2)c(-c2ccccc2)nc2cc(O)ccc12)c1ccccc1` [Example 21, 3-[1,4′]Bipiperidinyl-1′-ylmethyl-7-hydroxy-2-phenyl-quinoline-4-carboxylic Acid ((S)-2-methyl-1-phenyl-propyl)-amide], the melting point was 200 to 204 °C (dec.).
As for `CCOC(=O)C1CCCN(C2CCN(Cc3c(-c4ccccc4)nc4ccccc4c3C(=O)N[C@@H](C)C3CCCCC3)CC2)C1` (stereo partly drawn) [Example 13, 1′-[4-((S)-1-Cyclohexyl-ethylcarbamoyl)-2-phenyl-quinolin-3-ylmethyl]-[1,4′]bipiperidinyl-3-carboxylic Acid Ethyl Ester], the figure is 104 to 105 °C; as for `C[C@H](NC(=O)c1c(CN2CCC(N)CC2)c(-c2ccccc2)nc2ccccc12)c1ccccc1` [Example 7, 3-(4-Amino-piperidin-1-ylmethyl)-2-phenyl-quinoline-4-carboxylic Acid ((S)-1-phenyl-ethyl)-amide], 118 to 119 °C.
For `COc1ccc2c(C(=O)N[C@H](c3ccccc3)C(C)C)c(CN3CCC(N4CCCCC4)CC3)c(-c3ccccc3)nc2c1` [Example 22, 3-[1,4′]Bipiperidinyl-1′-ylmethyl-7-methoxy-2-phenyl-quinoline-4-carboxylic Acid ((S)-2-methyl-1-phenyl-propyl)-amide], the melting point was 113 to 116 °C.
`C[C@H](NC(=O)c1c(CN2CCC(N3CCCC3=O)CC2)c(-c2ccccc2)nc2ccccc12)c1ccccc1` [Example 12, 3-[4-(2-Oxo-pyrrolidin-1-yl)-piperidin-1-ylmethyl]-2-phenyl-quinoline-4-carboxylic Acid ((S)-1-phenyl-ethyl)-amide]: the melting point lay in the range of 120 to 125 °C.
`CCOC(=O)COc1ccc2c(C(=O)N[C@@H](CC)c3ccccc3)c(CN3CCC(N4CCCCC4)CC3)c(-c3ccccc3)nc2c1` [Example 16, [3-[1,4′]Bipiperidinyl-1′-ylmethyl-2-phenyl-4-((S)-1-phenyl-propylcarbamoyl)-quinolin-7-yloxy]-acetic Acid Ethyl Ester]: the melting point was in the range of 101 to 104 °C.
